Measurements: PubChem BioAssay AID179 (DTP/NCI, 2004)
Several values for one entry are separate records, joined by “and”; a condition that tells them apart may be missing. Equal entries are not always repeated. Activity calls are given as the source filed them.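 How the source made its calls: active means compounds giving half or more protection of infected cells from virus-caused growth loss, again on retest; inactive means the rest.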 Where a SMILES comes first, the peptide text is derived from it. The star is where a group is joined. Boc = CC(C)(C)OC(=O)*; Bn = c1ccc(C*)cc1

System: CEM cells HIV-1 protection, formazan growth assay
Assay: NCI AIDS Antiviral Assay
Conditions: for IC50: measured here: growth of uninfected CEM cells
Summary of the method: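 Screen of anti-HIV-1 activity in human CEM cells using a formazan-based growth measurement at five drug concentrations. Hits with 50% or greater protection were repeated, and confirmation required reproducible complete protection.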

Row | SMILES | EC50 | IC50 | outcome
1 | COc1ccc(CN2CCCN(/N=C/c3c4c(O)c5c(O)c(C)c6c(c5c3O)C(=O)C(C)(O/C=C/C(OC)C(C)C(OC(C)=O)C(C)C(O)C(C)C(O)C(C)/C=C/C=C(C)C(=O)N4)O6)CC2)cc1 (stereo not given) | > 200 µM | 12 µM | –
2 | O=S1(c2ccccc2)=NC(Nc2ccccc2)=Nc2ccccc21 (stereo not given) | > 36.3 µM | 30.2 µM | –
3 | c1ccc([B-]2([C+]3CCCCC3)N3CCCCC3C3CCCCN32)cc1 (stereo not given) | > 200 µM | 8.32 µM | –
4 | CCN(CC)CCCCCCNc1cc(OC)cc2c(C)ccnc12 | > 603 µM | 19.5 µM | –
5 | CCOC(=O)C(=C/C=C/NCCc1c[nH]c2ccccc12)C(=O)OCC | > 10.7 µM | > 10.7 µM | –
6 | O=C1C=CC(=O)c2c(O)c(CO)c(CO)c(O)c21 | – | – | inactive
7 | CN(C)c1ccc(C=C(C(=O)c2ccccc2)C(=O)c2ccccc2)cc1 | > 10.7 µM | > 10.7 µM | –
8 | C[C@@H]1C[C@H]2[C@@H]3C[C@H](F)C4=CC(=O)C=C[C@]4(C)[C@@]3(F)[C@@H](O)C[C@]2(C)C1C(=O)COC(=O)c1cccc2c(=O)c3ccccc3[nH]c12 (stereo not given in full) | > 100 µM | 2 µM | –
9 | CCOC(=O)c1cc(-c2ccc3ccccc3n2)c(O)c2cc3ccccc3nc12 | > 200 µM | > 200 µM | –
10 | CC1(C)Oc2ccc(NC(=O)CCC(N)C(=O)O)cc2O1 (stereo not given) | 186 µM | > 200 µM | –
11 | O=C1NC(N/N=C\C(O)C(O)C(O)C(O)CO)=N/C1=C\c1ccc(Cl)cc1 (stereo not given) | > 200 µM | 33.9 µM | –
12 | C[N+](C)(CCCCCC[N+](C)(C)CC(=O)O)CC(=O)O | > 550 µM | > 550 µM | –
13 | CN(C)CCC(=O)/C=C\c1ccccc1 | – | – | inactive
14 | CNC(=O)C(CC(C)C)NC(=O)C(C)NC(=O)C(Cc1ccc(OCc2ccccc2)cc1)NC(=O)C(COCc1ccccc1)NC(=O)OC(C)(C)C (stereo not given) (Boc-S(Bn)Y(Bn)AL-NHMe; configuration not given here) | > 200 µM | 9.55 µM and 13.5 µM | –
15 | COc1ccc(NC(=O)C2=C(SC)C(=O)N=C2N)cc1 | > 100 µM | > 100 µM | –
16 | CC(C)(C)c1cc(C(C)(C)C)c(N=O)c(C(C)(C)C)c1 | > 200 µM | > 200 µM | –
17 | CCOC(=O)NC1C2CC(=O)C(O2)C1OCc1ccccc1 (stereo not given) | > 309 µM | 295 µM | –
18 | CC1(C)CN(C(=O)OCc2ccccc2)[C@@H]2N1C(=O)[C@@]2(C)OCCCO[C@]1(C)C(=O)N2[C@H]1N(C(=O)OCc1ccccc1)CC2(C)C | > 200 µM | > 200 µM | –
19 | COC(=O)c1c(-c2ccccc2)sc(-c2cccc3ccccc23)c1C(=O)OC | – | – | inactive
20 | CS(=O)(=O)CS(=O)(=O)OCCCl | > 1050 µM | 182 µM | –
21 | COC(=O)C(c1ccccc1)C(SCc1ccccc1)c1ccccc1 (stereo not given) | > 200 µM | > 200 µM | –

Row | SMILES | EC50 | IC50 | outcome
22 | CN1CCC(O)(C(C)(C)C)CC1 | > 200 µM | > 200 µM | –
23 | CC1(C)CNC[C@](C)(OCCOC(c2ccccc2)(c2ccccc2)c2ccccc2)C(=O)NC(C)(C)CNC[C@@](C)(OCCOC(c2ccccc2)(c2ccccc2)c2ccccc2)C(=O)N1 | > 200 µM | > 200 µM | –
24 | NC(=O)CNC(=O)c1ccccc1SC(=O)NCCBr | 2 µM | 10 µM | –
25 | O=C(O)c1ccc(S(=O)(=O)c2ccccc2[N+](=O)[O-])cc1 | > 200 µM | > 200 µM | –
26 | O=C(c1ccc(Cl)cc1)N1CC1 | > 200 µM | 81.3 µM | –
27 | CN1C2(c3ccccc3)C(C(=O)c3ccccc3)=C(C(=O)c3ccccc3)C1(c1ccccc1)c1c(-c3ccccc3)sc(-c3ccccc3)c12 | – | – | inactive
28 | CCCCCCCCCCCCS(=O)(=O)O | – | – | inactive
29 | COc1cc2ccn3c4cc(OC)c(OC)cc4cc3c2cc1OC | 7.94 µM | 8.13 µM | –
30 | O=C1NC2ON=C(c3ccccc3)C2C2ON=C(c3ccccc3)N12 (stereo not given) | > 200 µM | 37.2 µM | –
31 | O=C(O)COc1cccc2ccccc(=O)c12 | > 200 µM | > 200 µM | –
32 | CCOC1CN=C(Nc2cccc3ccccc23)S1 (stereo not given) | > 200 µM | 162 µM | –
33 | Nc1cc(C(F)(F)F)ccc1S | > 200 µM | 22.9 µM | –
34 | COc1c(C)c(-c2c(C)c(OC)c3c(c2OC)OCO3)c(OC)c2c1OCO2 | > 200 µM | 170 µM | –
35 | CC(C)(C)OC(=O)NCCCCC(N)NC(=O)c1ccccc1 (stereo not given) | > 200 µM | > 200 µM | –
36 | NS(=O)(=O)c1ccc(-c2c3nc(c(-c4ccc(S(N)(=O)=O)cc4)c4ccc([nH]4)c(-c4ccc(S(N)(=O)=O)cc4)c4nc(c(-c5ccc(S(N)(=O)=O)cc5)c5ccc2[nH]5)C=C4)C=C3)cc1 | > 97.7 µM | 46.8 µM | –
37 | O=C(Nc1nc2ccccc2s1)c1cc([N+](=O)[O-])ccc1Cl | > 200 µM | 3.8 µM | –
38 | CCC(C)C(NC(=O)CNC(=O)C(Cc1cnc[nH]1)NC(=O)C(NC(=O)C(CS)NC(=O)C(CCC(N)=O)NC(=O)C(NC(=O)C(NC(=O)C(CO)NC(=O)C(NC(=O)C(CC(N)=O)NC(=O)C(NC(=O)C(CO)NC(=O)C1CCCN1C(=O)CNC(=O)C(NC(=O)CN)C(C)O)C(C)O)C(C)C)C(C)O)C(C)C)C(C)O)C(=O)NC(CCCN=C(N)N)C(N)=O (stereo not given) (H-GTGPSTNVSTVQCTHGIR-NH2; configuration not given here) | > 50.1 µM | > 50.1 µM | –
39 | Cc1ccsc1C(=S)Nc1ccc(Cl)c(/C=N/OC(C)(C)C)c1 | 0.141 µM | 14.1 µM | –
40 | CC(C)(C)C1CCC2(CC1)CO2 (stereo not given) | > 200 µM | 195 µM | –
41 | O=c1[nH][nH]c(=O)c2nc(Nc3ccccc3)ncc12 | > 28.2 µM | > 28.2 µM | –
42 | CCN(CC)CCC1CCCCN1CC(=O)N1c2ccccc2NC(=O)CC1C (stereo not given) | > 200 µM | > 200 µM | –

Row | SMILES | EC50 | IC50 | outcome
43 | C=C(C)[C@@H](C(=O)OC)N1C(=O)c2ccccc2C1=O | > 200 µM | > 200 µM | –
44 | CCN(CC)CCN1CC(=O)N2CCCCN2C(=O)C1 | > 200 µM | > 200 µM | –
45 | COC(=O)C12Oc3ccc(-c4ccc5c(c4O)C(=O)C4=CCC(C)C(O)C4(C(=O)OC)O5)c(O)c3C(=O)C1=CCC(C)C2O (stereo not given) | > 12 µM | 1.78 µM | –
46 | CCOC(=O)CCC(NC(=O)c1ccc(N=Cc2nc3cc(C(F)(F)F)ccc3nc2-c2ccccc2)cc1)C(=O)OCC (stereo not given) | > 5.89 µM | > 5.89 µM | –
47 | N#C/C(=C/NC(=S)NCc1ccccc1)C(N)=O | > 200 µM | > 200 µM | –
48 | CCN1c2nc3ccccc3nc2N(CC)c2nc3ccccc3nc21 | > 200 µM | 41.7 µM | –
49 | Cn1cc(C2(C)CC(C)(C)c3c2n(C)c2ccccc32)c2ccccc21 (stereo not given) | > 55 µM | 47.9 µM | –
50 | CC1CN=C(CCc2ccc(NC(=O)c3ccc(C(=O)Nc4ccc(CCC5=NCC(C)N5)cc4)cc3)cc2)N1 (stereo not given) | > 200 µM | 45.7 µM | –
51 | CC(C)(CN1CCCCC1)C(=O)CC(SCCN)c1ccc(Cl)cc1 (stereo not given) | > 234 µM | 12.6 µM | –
52 | O=C1N=C2N=C(c3ccc(Cl)cc3)N(c3ccc(Cl)cc3)N2Sc2ccccc21 | > 11.2 µM | > 11.2 µM | –
53 | CCOC(=O)NC1=C(N2CC2)C(=O)C(NC(=O)OCC)=C(N2CC2)C1=O | > 24.5 µM | 6.46 µM | –
54 | Cc1ccccc1C(C#N)C(=O)C(=O)Nc1nc([N+](=O)[O-])cs1 (stereo not given) | > 7.94 µM | > 7.94 µM | –
55 | CC(CC(=O)O)C(N)C(=O)O (stereo not given) | > 200 µM | > 200 µM | –
56 | COc1cc(Nc2cc(Cl)cc(Cl)c2)nc(N)n1 | > 200 µM | 27.5 µM | –
57 | CC(=O)O/C(=C(/C#N)C(=O)O)C1C(C(=O)O)C(c2ccccc2[N+](=O)[O-])C=C(c2ccco2)N1c1ccncc1 (stereo not given) | > 20 µM | 2.4 µM | –
58 | O=C(NC12CC3CC(CC(C3)C1)C2)C(=O)c1c[nH]c2ccc(Br)cc12 | > 200 µM | 25.7 µM | –
59 | COc1ccc(/C=C2/Cc3cccc4c([N+](=O)[O-])ccc2c34)cc1 | > 100 µM | > 100 µM | –
60 | COc1cc(/C=C2/SC(c3ccccc3)N(Cc3ccccc3)C2=O)cc(OC)c1OC (stereo not given) | > 200 µM | 25.7 µM | –
61 | CCOC/N=C(/N)NC#N | > 631 µM | > 631 µM | –
62 | O=C(O)CCSC(=S)Nc1ccccc1 | – | – | inactive
63 | CCOC(=O)/C=C/CCC(C)(C)COC(C)=O | – | – | inactive

Row | SMILES | EC50 | IC50 | outcome
64 | O=C1OCCN1c1ccccc1 | > 1100 µM | > 1100 µM | –
65 | Nc1nc(=O)n(C2CCC(CO)O2)cc1F (stereo not given) | 0.151 µM | 32.4 µM | –
66 | O=C1OCC2=Nc3cccc4cccc(c34)N12 | > 0.676 µM | 0.331 µM | –
67 | O=c1/c(=C/c2c(O)ccc3ccccc23)sc2nc3ccccc3n12 | – | – | inactive
68 | CCn1cc(/C=C/C(C)c2cn(CC)c(=O)[nH]c2=O)c(=O)[nH]c1=O (stereo not given) | – | – | inactive
69 | O=C(CSc1nc(-c2ccccc2)c(-c2ccccc2)[nH]1)N/N=C/c1ccc(O)cc1 | > 43.7 µM | 9.77 µM | –
70 | CC(=O)C1C(=O)C(=O)N(CCN2C(=O)C(=O)C(C(C)=O)C2=O)C1=O (stereo not given) | > 11.2 µM | > 11.2 µM | –
71 | CCOC(=O)CCCSCCCC1(CCCSCCCC(=O)OCC)OCCO1 | > 39.8 µM | > 39.8 µM | –
72 | COc1ccc(/C=C2\CCC(C)C3C2=NN(c2ccccc2)C3c2ccc(OC)c(OC)c2)cc1OC (stereo not given) | > 200 µM | 5.01 µM | –
73 | O=C(O)c1cc2oc(-c3ccccc3)cc2[nH]1 | > 219 µM | 155 µM | –
74 | C=Cc1cc[n+](CCCCCCCCCCCC)cc1 | > 174 µM | 102 µM | –
75 | CC(C)=CCN1Cc2c(F)ccc3[nH]c(=S)n(c23)CC1C (stereo not given) | 0.0398 µM | 70.8 µM | –
76 | CCC1N2CCCCC2[C@@H]2c3[nH]c4ccccc4c3CCN12 (stereo not given in full) | > 447 µM | 389 µM | –
77 | COc1ccc(C2C(C)C(=O)C(C)C(c3ccc(OC)cc3)N2N=O)cc1 (stereo not given) | > 19.5 µM | > 19.5 µM | –
78 | Cc1cc(Cl)ccc1NC(=O)/C(Cl)=C(/Cl)C(=O)O | – | – | inactive
79 | O=c1oc2ccccc2c(O)c1C(c1ccccc1)c1c(O)c2ccccc2oc1=O | > 200 µM | 33.1 µM | –
80 | CN/N=C(\C)CC(=O)Nc1cccc(Cl)c1C | > 14.8 µM | > 14.8 µM | –
81 | Cc1cccc2c1C(=O)OC2(C)c1cccc2ccccc12 (stereo not given) | – | – | inactive
82 | CCOC(=O)C1(C/C=C\CBr)CCCCCCC1=O (stereo not given) | > 200 µM | 16.2 µM | –
83 | CCC1C(c2ccccc2O)c2cc3c(cc2OC1N1CCOCC1)OCO3 (stereo not given) | > 200 µM | 22.4 µM | –
